How the values were obtained:
[1] = molecular target: MAP kinase-activated protein kinase 2 (Homo sapiens) (UniProt P49137); settings: Compound concentration 1000.0 nM
[2] = molecular target: Casein kinase II subunit alpha' (Homo sapiens) (UniProt P19784); settings: Compound concentration 1000.0 nM
[3] = molecular target: BMP-2-inducible protein kinase (Homo sapiens) (UniProt Q9NSY1); settings: Compound concentration 1000.0 nM
[4] = molecular target: Serine/threonine-protein kinase PLK1 (Homo sapiens) (UniProt P53350); settings: Compound concentration 1000.0 nM
[5] = molecular target: Ribosomal protein S6 kinase alpha-3 (Homo sapiens) (UniProt P51812); settings: Compound concentration 1000.0 nM
[6] = molecular target: Serine/threonine-protein kinase Nek1 (Homo sapiens) (UniProt Q96PY6); settings: Compound concentration 1000.0 nM
[7] = molecular target: Dual specificity protein kinase CLK3 (Homo sapiens) (UniProt P49761); settings: Compound concentration 1000.0 nM
[8] = molecular target: D(3) dopamine receptor (Homo sapiens) (UniProt P35462); settings: Compound concentration 10.0 uM
[9] = test system: Phosphatidylinositol 4,5-bisphosphate 3-kinase catalytic subunit alpha isoform (Homo sapiens), P42336 [E545K]; settings: Compound concentration 1000.0 nM
[10] = molecular target: Ribosomal protein S6 kinase alpha-5 (Homo sapiens) (UniProt O75582); settings: Compound concentration 1000.0 nM
[11] = molecular target: Serine/threonine-protein kinase mTOR (Homo sapiens) (UniProt P42345); settings: Compound concentration 1000.0 nM
[12] = molecular target: Receptor-type tyrosine-protein kinase FLT3 (Homo sapiens) (UniProt P36888); settings: Compound concentration 1000.0 nM
[13] = test system: Mast/stem cell growth factor receptor Kit (Homo sapiens), P10721 [A829P]; settings: Compound concentration 1000.0 nM
[14] = molecular target: Phosphatidylinositol 4,5-bisphosphate 3-kinase catalytic subunit beta isoform (Homo sapiens) (UniProt P42338); settings: Compound concentration 1000.0 nM
Phosphatidylinositol 4,5-bisphosphate 3-kinase catalytic subunit beta isoform (Homo sapiens), sequence (P42338 whole entry, looked up, canonical isoform): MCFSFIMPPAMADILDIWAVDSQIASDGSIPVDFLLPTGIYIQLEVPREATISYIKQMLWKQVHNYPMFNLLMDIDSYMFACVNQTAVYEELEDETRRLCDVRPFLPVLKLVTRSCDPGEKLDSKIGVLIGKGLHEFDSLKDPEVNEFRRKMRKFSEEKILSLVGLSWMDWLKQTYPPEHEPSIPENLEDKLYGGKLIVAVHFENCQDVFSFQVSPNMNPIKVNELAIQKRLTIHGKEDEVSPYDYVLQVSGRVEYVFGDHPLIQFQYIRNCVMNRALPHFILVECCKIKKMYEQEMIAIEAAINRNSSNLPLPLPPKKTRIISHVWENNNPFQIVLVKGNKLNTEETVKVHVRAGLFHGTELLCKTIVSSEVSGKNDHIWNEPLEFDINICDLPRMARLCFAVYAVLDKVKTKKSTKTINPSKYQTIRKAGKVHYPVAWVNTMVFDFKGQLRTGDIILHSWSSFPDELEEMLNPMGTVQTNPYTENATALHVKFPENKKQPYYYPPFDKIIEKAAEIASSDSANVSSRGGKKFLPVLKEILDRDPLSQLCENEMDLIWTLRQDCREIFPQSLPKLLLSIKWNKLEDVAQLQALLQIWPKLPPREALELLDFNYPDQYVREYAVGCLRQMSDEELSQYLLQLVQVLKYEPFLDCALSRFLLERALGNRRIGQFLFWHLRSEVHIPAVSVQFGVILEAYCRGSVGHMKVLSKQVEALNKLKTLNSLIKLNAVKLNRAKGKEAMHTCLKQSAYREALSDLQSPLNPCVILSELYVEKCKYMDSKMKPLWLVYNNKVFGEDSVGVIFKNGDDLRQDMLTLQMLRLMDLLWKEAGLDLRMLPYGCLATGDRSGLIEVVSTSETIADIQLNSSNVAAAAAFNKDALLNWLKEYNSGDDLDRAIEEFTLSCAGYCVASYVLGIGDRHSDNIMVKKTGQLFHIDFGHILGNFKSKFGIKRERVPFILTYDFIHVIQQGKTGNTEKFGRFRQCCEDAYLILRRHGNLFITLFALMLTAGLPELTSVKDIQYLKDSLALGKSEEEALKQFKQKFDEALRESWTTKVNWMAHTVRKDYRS

[15] = molecular target: Ephrin type-B receptor 3 (Homo sapiens) (UniProt P54753); settings: Compound concentration 1000.0 nM
[16] = molecular target: Calcium-dependent protein kinase 1 (Plasmodium falciparum) (UniProt P62344); settings: Compound concentration 1000.0 nM
Calcium-dependent protein kinase 1 (Plasmodium falciparum), sequence (P62344 2-524 limits assumed): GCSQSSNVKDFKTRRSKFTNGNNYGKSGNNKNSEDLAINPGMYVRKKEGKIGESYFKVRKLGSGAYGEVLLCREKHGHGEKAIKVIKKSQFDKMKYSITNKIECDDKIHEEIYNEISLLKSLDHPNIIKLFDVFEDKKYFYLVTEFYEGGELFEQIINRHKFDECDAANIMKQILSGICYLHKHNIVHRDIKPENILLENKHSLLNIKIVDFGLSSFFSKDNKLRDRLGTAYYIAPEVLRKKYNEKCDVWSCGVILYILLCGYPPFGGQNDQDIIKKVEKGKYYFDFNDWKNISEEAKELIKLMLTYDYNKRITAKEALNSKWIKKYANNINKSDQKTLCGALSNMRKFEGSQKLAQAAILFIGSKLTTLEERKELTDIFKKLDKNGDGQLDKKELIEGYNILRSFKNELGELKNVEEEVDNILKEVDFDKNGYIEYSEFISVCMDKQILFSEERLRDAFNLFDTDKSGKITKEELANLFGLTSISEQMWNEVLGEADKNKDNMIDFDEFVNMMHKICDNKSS

[17] = molecular target: Dual specificity testis-specific protein kinase 1 (Homo sapiens) (UniProt Q15569); settings: Compound concentration 1000.0 nM
Dual specificity testis-specific protein kinase 1 (Homo sapiens), sequence (Q15569 whole entry, looked up): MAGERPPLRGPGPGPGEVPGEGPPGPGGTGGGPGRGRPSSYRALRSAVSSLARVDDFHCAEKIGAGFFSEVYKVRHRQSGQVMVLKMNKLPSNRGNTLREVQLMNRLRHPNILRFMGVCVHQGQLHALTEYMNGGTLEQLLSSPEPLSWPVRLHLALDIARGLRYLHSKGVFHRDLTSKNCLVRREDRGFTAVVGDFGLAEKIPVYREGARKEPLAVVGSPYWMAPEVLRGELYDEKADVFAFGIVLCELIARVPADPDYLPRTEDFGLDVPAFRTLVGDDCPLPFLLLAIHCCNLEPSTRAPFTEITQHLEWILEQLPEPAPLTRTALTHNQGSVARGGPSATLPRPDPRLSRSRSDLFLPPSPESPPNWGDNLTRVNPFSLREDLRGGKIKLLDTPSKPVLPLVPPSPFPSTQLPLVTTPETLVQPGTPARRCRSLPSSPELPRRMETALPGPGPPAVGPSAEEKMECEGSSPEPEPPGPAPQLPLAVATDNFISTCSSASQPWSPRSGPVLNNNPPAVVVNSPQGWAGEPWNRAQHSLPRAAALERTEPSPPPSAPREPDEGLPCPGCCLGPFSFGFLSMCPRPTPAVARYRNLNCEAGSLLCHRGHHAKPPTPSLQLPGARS

[18] = molecular target: Ephrin type-A receptor 7 (Homo sapiens) (UniProt Q15375); settings: Compound concentration 1000.0 nM
[19] = molecular target: Phosphatidylinositol 4-phosphate 3-kinase C2 domain-containing subunit beta (Homo sapiens) (UniProt O00750); settings: Compound concentration 1000.0 nM
[20] = molecular target: Ephrin type-A receptor 4 (Homo sapiens) (UniProt P54764); settings: Compound concentration 1000.0 nM
[21] = molecular target: Bone morphogenetic protein receptor type-1B (Homo sapiens) (UniProt O00238); settings: Compound concentration 1000.0 nM
[22] = molecular target: Ephrin type-A receptor 1 (Homo sapiens) (UniProt P21709); settings: Compound concentration 1000.0 nM
[23] = molecular target: Phosphatidylinositol 4,5-bisphosphate 3-kinase catalytic subunit alpha isoform (Homo sapiens) (UniProt P42336); settings: Compound concentration 1000.0 nM
[24] = test system: Receptor-type tyrosine-protein kinase FLT3 (Homo sapiens), P36888 [N841I]; settings: Compound concentration 1000.0 nM
[25] = molecular target: Serine/threonine-protein kinase tousled-like 1 (Homo sapiens) (UniProt Q9UKI8); settings: Compound concentration 1000.0 nM
Serine/threonine-protein kinase tousled-like 1 (Homo sapiens), sequence (Q9UKI8 whole entry): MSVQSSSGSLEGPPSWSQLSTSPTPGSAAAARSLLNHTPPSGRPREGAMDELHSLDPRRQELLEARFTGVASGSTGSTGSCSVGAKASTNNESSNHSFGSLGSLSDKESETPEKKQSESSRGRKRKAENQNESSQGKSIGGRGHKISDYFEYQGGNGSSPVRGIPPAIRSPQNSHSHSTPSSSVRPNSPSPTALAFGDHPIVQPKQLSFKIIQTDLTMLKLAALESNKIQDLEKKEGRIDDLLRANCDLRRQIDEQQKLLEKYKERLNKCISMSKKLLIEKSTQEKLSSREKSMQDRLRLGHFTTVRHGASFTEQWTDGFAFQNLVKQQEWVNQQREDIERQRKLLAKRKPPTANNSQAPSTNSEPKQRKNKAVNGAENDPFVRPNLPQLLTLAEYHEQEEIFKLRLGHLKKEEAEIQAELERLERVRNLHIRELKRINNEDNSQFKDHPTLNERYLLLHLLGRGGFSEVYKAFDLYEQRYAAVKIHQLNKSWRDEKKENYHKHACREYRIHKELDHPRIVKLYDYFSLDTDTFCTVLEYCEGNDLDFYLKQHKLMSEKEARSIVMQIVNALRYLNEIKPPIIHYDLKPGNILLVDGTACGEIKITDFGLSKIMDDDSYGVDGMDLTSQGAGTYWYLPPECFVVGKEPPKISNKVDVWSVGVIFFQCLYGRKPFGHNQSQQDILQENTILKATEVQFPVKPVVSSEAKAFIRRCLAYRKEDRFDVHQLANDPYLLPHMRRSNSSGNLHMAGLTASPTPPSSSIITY

[26] = molecular target: Sodium-dependent serotonin transporter (Homo sapiens) (UniProt P31645); settings: Compound concentration 10.0 uM
[27] = molecular target: Cyclin-dependent kinase 3 (Homo sapiens) (UniProt Q00526); settings: Compound concentration 1000.0 nM
[28] = molecular target: Interleukin-1 receptor-associated kinase 4 (Homo sapiens) (UniProt Q9NWZ3); settings: Compound concentration 1000.0 nM
[29] = molecular target: Serine/threonine-protein kinase Sgk1 (Homo sapiens) (UniProt O00141); settings: Compound concentration 1000.0 nM
[30] = molecular target: NUAK family SNF1-like kinase 2 (Homo sapiens) (UniProt Q9H093); settings: Compound concentration 1000.0 nM
NUAK family SNF1-like kinase 2 (Homo sapiens), sequence (Q9H093 whole entry): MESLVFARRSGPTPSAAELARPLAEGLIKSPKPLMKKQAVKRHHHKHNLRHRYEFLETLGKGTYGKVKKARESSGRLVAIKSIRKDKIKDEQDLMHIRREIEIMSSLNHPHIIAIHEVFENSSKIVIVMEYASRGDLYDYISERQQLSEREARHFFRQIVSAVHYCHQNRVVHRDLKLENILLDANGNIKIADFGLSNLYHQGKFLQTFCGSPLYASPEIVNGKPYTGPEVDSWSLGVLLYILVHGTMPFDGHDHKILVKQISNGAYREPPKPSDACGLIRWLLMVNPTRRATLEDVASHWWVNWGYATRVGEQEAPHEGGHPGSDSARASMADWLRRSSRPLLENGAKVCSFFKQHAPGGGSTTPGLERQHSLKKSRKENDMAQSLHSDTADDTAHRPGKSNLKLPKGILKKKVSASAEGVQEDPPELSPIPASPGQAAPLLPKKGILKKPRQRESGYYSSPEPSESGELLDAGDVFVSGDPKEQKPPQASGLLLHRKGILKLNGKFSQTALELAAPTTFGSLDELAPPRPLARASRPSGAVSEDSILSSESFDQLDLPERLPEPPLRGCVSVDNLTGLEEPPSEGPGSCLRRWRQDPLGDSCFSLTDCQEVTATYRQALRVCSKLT

[31] = test system: Mast/stem cell growth factor receptor Kit (Homo sapiens), P10721 [D816H]; settings: Compound concentration 1000.0 nM
[32] = test system: Epidermal growth factor receptor (Homo sapiens), P00533 [UNDEFINED MUTATION]; settings: Compound concentration 1000.0 nM
[33] = molecular target: Mitogen-activated protein kinase 1 (Homo sapiens) (UniProt P28482); settings: Compound concentration 1000.0 nM
Mitogen-activated protein kinase 1 (Homo sapiens), sequence (P28482 whole entry): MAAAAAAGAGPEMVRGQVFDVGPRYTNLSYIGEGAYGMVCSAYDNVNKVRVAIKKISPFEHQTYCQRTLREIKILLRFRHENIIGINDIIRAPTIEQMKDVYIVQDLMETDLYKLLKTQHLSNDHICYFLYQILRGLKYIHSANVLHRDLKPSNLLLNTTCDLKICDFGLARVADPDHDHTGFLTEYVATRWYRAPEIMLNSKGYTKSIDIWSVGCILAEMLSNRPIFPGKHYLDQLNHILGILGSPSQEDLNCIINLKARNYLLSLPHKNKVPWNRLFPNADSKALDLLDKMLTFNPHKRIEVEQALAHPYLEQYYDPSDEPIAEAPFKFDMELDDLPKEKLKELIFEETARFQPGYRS

[34] = molecular target: Cyclin-dependent kinase 15 (Homo sapiens) (UniProt Q96Q40); settings: Compound concentration 1000.0 nM
[35] = molecular target: Serine/threonine-protein kinase TAO3 (Homo sapiens) (UniProt Q9H2K8); settings: Compound concentration 1000.0 nM
[36] = test system: Phosphatidylinositol 4,5-bisphosphate 3-kinase catalytic subunit alpha isoform (Homo sapiens), P42336 [M1043I]; settings: Compound concentration 1000.0 nM
[37] = test system: Epidermal growth factor receptor (Homo sapiens), P00533 [G719S]; settings: Compound concentration 1000.0 nM
[38] = molecular target: Serine/threonine-protein kinase MAK (Homo sapiens) (UniProt P20794); settings: Compound concentration 1000.0 nM
[39] = molecular target: Tyrosine-protein kinase ABL1 (Homo sapiens) (UniProt P00519); settings: Compound concentration 1000.0 nM
[40] = test system: Receptor-type tyrosine-protein kinase FLT3 (Homo sapiens), P36888 [K663Q]; settings: Compound concentration 1000.0 nM
[41] = molecular target: Interleukin-1 receptor-associated kinase 1 (Homo sapiens) (UniProt P51617); settings: Compound concentration 1000.0 nM
[42] = molecular target: Serine/threonine-protein kinase 25 (Homo sapiens) (UniProt O00506); settings: Compound concentration 1000.0 nM
Serine/threonine-protein kinase 25 (Homo sapiens), sequence (O00506 whole entry, looked up): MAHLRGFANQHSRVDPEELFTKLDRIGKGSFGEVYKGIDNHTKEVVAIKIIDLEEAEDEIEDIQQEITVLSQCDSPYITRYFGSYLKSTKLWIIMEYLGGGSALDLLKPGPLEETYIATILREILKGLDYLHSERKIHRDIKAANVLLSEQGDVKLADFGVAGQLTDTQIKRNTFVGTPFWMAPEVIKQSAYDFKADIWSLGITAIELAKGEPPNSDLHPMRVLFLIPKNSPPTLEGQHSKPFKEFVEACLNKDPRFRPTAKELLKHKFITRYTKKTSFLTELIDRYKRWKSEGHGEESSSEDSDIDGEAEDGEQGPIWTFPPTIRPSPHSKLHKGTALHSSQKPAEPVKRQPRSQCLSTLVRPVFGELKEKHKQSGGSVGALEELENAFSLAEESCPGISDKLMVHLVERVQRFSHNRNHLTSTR

[43] = molecular target: RAF proto-oncogene serine/threonine-protein kinase (Homo sapiens) (UniProt P04049); settings: Compound concentration 1000.0 nM
[44] = molecular target: cGMP-dependent protein kinase 2 (Homo sapiens) (UniProt Q13237); settings: Compound concentration 1000.0 nM
[45] = molecular target: Sigma intracellular receptor 2 (Homo sapiens, UniProt Q5BJF2); experiment: GPCRScan assay: inhibition of Sigma 2; set-up: radioligand conc. used [nm] 5.0, parental cells HEKT
Sigma intracellular receptor 2, sequence (Q5BJF2 whole entry): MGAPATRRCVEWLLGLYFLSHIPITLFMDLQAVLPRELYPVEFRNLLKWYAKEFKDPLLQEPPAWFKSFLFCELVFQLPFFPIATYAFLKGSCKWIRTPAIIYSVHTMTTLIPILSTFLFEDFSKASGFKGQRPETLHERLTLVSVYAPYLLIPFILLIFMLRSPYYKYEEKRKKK

Casein kinase II subunit alpha' (Homo sapiens), sequence (P19784 whole entry, looked up): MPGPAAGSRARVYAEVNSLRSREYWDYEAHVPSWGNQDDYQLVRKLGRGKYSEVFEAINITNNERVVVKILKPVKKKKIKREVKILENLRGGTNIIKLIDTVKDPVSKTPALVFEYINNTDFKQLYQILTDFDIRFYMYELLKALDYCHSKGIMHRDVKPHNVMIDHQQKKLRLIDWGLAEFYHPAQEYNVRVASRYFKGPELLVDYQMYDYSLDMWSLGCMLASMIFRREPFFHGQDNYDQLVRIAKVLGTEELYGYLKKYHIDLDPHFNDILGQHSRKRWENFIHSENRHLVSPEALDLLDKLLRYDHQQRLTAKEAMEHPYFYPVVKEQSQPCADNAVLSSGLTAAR

Compound: O=C(NCc1ncc(C(F)(F)F)cc1Cl)c1ccc2c(c1)C1(CCS(=O)(=O)CC1)[C@@H](C1CC1)N2S(=O)(=O)c1ccc(F)cc1 [BAY-786]
- residual activity [1]: 100%
- residual activity [2]: 72%
- residual activity [3]: 76%
- residual activity [4]: 82%
- residual activity [5]: 57%
- residual activity [6]: 96%
- residual activity [7]: 100%
- inhibition [8]: 3.82%
- residual activity [9]: 74%
- residual activity [10]: 97%
- residual activity [11]: 92%
- residual activity [12]: 94%
- residual activity [13]: 67%
- residual activity [14]: 75%
- residual activity [15]: 100%
- residual activity [16]: 100%
- residual activity [17]: 85%
- residual activity [18]: 100%
- residual activity [19]: 90%
- residual activity [20]: 97%
- residual activity [21]: 85%
- residual activity [22]: 86%
- residual activity [23]: 100%
- residual activity [24]: 78%
- residual activity [25]: 100%
- inhibition [26]: -4.88%
- residual activity [27]: 41%
- residual activity [28]: 90%
- residual activity [29]: 77%
- residual activity [30]: 75%
- residual activity [31]: 64%
- residual activity [32]: 96%
- residual activity [33]: 83%
- residual activity [34]: 69%
- residual activity [35]: 80%
- residual activity [36]: 56%
- residual activity [37]: 86%
- residual activity [38]: 89%
- residual activity [39]: 89%
- residual activity [40]: 100%
- residual activity [41]: 77%
- residual activity [42]: 99%
- residual activity [43]: 100%
- residual activity [44]: 89%
- Ki [45]: 2000 nM

Compound: O=C(NCc1ncc(C(F)(F)F)cc1Cl)c1ccc2c(c1)C1(CCS(=O)(=O)CC1)[C@H](C1CC1)N2S(=O)(=O)c1ccc(F)cc1 [BAY-784]
- residual activity [1]: 100%
- residual activity [2]: 100%
- residual activity [3]: 96%
- residual activity [4]: 86%
- residual activity [5]: 70%
- residual activity [6]: 100%
- residual activity [7]: 86%
- inhibition [8]: 9.45%
- residual activity [9]: 84%
- residual activity [10]: 100%
- residual activity [11]: 100%
- residual activity [12]: 95%
- residual activity [13]: 92%
- residual activity [14]: 68%
- residual activity [15]: 100%
- residual activity [16]: 85%
- residual activity [17]: 91%
- residual activity [18]: 100%
- residual activity [19]: 100%
- residual activity [20]: 100%
- residual activity [21]: 93%
- residual activity [22]: 100%
- residual activity [23]: 100%
- residual activity [24]: 58%
- residual activity [25]: 96%
- inhibition [26]: -5.4%
- residual activity [27]: 100%
- residual activity [28]: 100%
- residual activity [29]: 79%
- residual activity [30]: 81%
- residual activity [31]: 79%
- residual activity [32]: 97%
- residual activity [33]: 81%
- residual activity [34]: 100%
- residual activity [35]: 99%
- residual activity [36]: 93%
- residual activity [37]: 92%
- residual activity [38]: 100%
- residual activity [39]: 92%
- residual activity [40]: 100%
- residual activity [41]: 82%
- residual activity [42]: 100%
- residual activity [43]: 100%
- residual activity [44]: 77%
- Ki [45]: 1110 nM
